The IC50 is the concentration that inhibits the measured activity by half. High values mean weaker potency in that assay, low ones greater potency in that assay.

No end group written: not given here. Where only a bound is given, the exact number is not on record here.

Targets include HLA-A3.2 (A*0301) (Homo sapiens, UniProt P04439); A*6801 (Homo sapiens, UniProt P04439, A269V/D185E/E176V/E277Q/E87N/F33Y/G231S/I121M/I166T/I218V/L180W/L300P/L318F/N151K/P208A/P217A/Q86R/R169H/T345S); A*3301 (Homo sapiens, UniProt P04439, A270S/D185E/E176V/E277Q/E87N/F33T/G231S/H175R/I121M/I218V/I322F/K168Q/K210R/L300P/L318F/M331R/P217A/Q86R/Q94H/R138Q/T323A/T345S/T97I/V358M/Y195H); A31 (A*3101) (Homo sapiens, UniProt P04439, A270S/D185E/E176V/E277Q/F33T/G231S/G80R/H175R/I121M/I218V/I322F/K168Q/L300P/L318F/M331R/P217A/Q94H/R138Q/T323A/T345S/T97I/V358M); HLA-A11 (A*1101) (Homo sapiens, UniProt P04439, A114D/D185E/E176A/F33Y/L180Q/S129P/T187R).

Assay in all cases: biochemical
Format in all cases: binding

As to LTYDSEWQR [Peptide 1589.04], the IC50 against HLA-A3.2 (A*0301) is 888 nM; against A*6801 it was 14 nM.
For the compound TLSAELPK [Peptide 1556.24], the IC50 at A*6801 is more than 20000 nM; at A*3301, more than 20000 nM; at A31 (A*3101) it was more than 20000 nM; at HLA-A11 (A*1101), 102 nM.
For the compound VQFKSECEK [Peptide 88.0419], the IC50 against A*6801 was more than 20000 nM; against A*3301 it was 4770 nM; against A31 (A*3101), 2680 nM; against HLA-A11 (A*1101), 20 nM.
In the same order, the values of KVSEFRWYRY [Peptide 78.0053] are 1910 nM, 7070 nM, 11 nM and 24 nM.
Consider VTVYYGVPVRR [Peptide 1525.07], for which the half-inhibitory concentration (IC50) amounted to 32 nM against A*6801, 795 nM at A*3301, 59 nM against A31 (A*3101) and 271 nM against HLA-A11 (A*1101).
In the same order, the values of KQIVMFLRY [Peptide 88.0330] are 2260 nM, 6400 nM, 4390 nM and 97 nM.
As to GQVNCKGIYY [Peptide 88.0209], the IC50 was more than 20000 nM against A*6801, more than 20000 nM on A*3301, 2760 nM on A31 (A*3101) and 168 nM against HLA-A11 (A*1101).
Take GTTLEQQYNK [Peptide 78.0044]: the IC50 was 3940 nM against A*6801, more than 20000 nM on A*3301, more than 20000 nM on A31 (A*3101) and 69 nM on HLA-A11 (A*1101).
On to EFTAFLVAFK [Peptide 88.0193], for which the IC50 stood at 7480 nM at HLA-A3.2 (A*0301), 980 nM at A*6801 and 127 nM on A*3301.
On to RVHSSHLKSKK [Peptide 1556.75], for which the half-maximal inhibitory concentration (IC50) against A*6801 was found to be 2150 nM; at A*3301, 12000 nM; against A31 (A*3101), 300 nM; on HLA-A11 (A*1101), 20 nM.
Consider WLSEPQKCFK [Peptide 88.0236], for which the figures for the IC50 against HLA-A3.2 (A*0301), at A*3301 and against A31 (A*3101) were 1690 nM, 617 nM and 2340 nM, respectively.
As for RQLFLNTVK [Peptide 1589.44], the IC50 against A*6801 was 16200 nM; against A*3301, more than 20000 nM; against A31 (A*3101), 87 nM; on HLA-A11 (A*1101), 39 nM.
Consider TSNECTNNK [Peptide 1589.31], for which the IC50 against HLA-A3.2 (A*0301) is 4790 nM; against A*3301 it was more than 20000 nM; against A31 (A*3101), 8910 nM.
With NVCVSWKYK [Peptide 88.0383], the half-maximal inhibitory concentration (IC50) on A*6801 turned out to be 628 nM; on A*3301, 2460 nM; on A31 (A*3101), 265 nM; at HLA-A11 (A*1101), 927 nM.
Consider ATCALYWYR [Peptide 88.0371], for which the IC50 on A*6801 is 120 nM; against A*3301, 15 nM; at A31 (A*3101), 19 nM; against HLA-A11 (A*1101), 18 nM.
On the same counts, the results for STTETADPK [Peptide 88.0441] are 74 nM, more than 20000 nM, 3580 nM and 17 nM.
In the same order, the values of `CC(C)C[C@H](NC(=O)[C@H](CCCNC(=N)N)NC(=O)[C@H](CCC(=O)O)NC(=O)[C@H](CCC(N)=O)NC(=O)[C@H](CCCNC(=N)N)NC(=O)[C@H](C)NC(=O)[C@@H](N)CCCNC(=N)N)C(=O)N[C@@H](CCC(N)=O)C(=O)N[C@@H](CCCNC(=N)N)C(=O)O` [Peptide 78.0311] are more than 20000 nM, more than 20000 nM, 350 nM and more than 20000 nM.
NTKANILYK [Peptide 88.0358]: the half-inhibitory concentration (IC50) against HLA-A3.2 (A*0301) was 2120 nM; on A*6801, 100 nM; against A*3301 it was 693 nM.
TTLEKLTNK [Peptide 78.0283]: the concentration for half-maximal inhibition (IC50) on A*6801 was found to be 2560 nM; against A*3301, 469 nM; on A31 (A*3101) it was 598 nM; against HLA-A11 (A*1101), 42 nM.
As to SQISYWQLIR [Peptide 88.0220], the IC50 was 2610 nM at HLA-A3.2 (A*0301), 934 nM on A*6801 and more than 20000 nM against A*3301.
Take AIRKAILGHR [Peptide 9017.0223]: the half-maximal inhibitory concentration (IC50) against A*6801 came to 7730 nM; at A*3301, 1520 nM; on A31 (A*3101), 25 nM; on HLA-A11 (A*1101), 12600 nM.
As to MLIEPPKLR [Peptide 88.0366], the concentration for half-maximal inhibition (IC50) against A*6801 was determined as 12 nM; against A*3301, 150 nM; on A31 (A*3101), 3160 nM; on HLA-A11 (A*1101) it was 2880 nM.
Consider VQVYFDGNK [Peptide 88.0399], for which the half-inhibitory concentration (IC50) on HLA-A3.2 (A*0301) was 2050 nM; against A*3301 it was more than 20000 nM; on A31 (A*3101) it was more than 20000 nM.
QVNCKGIYY [Peptide 88.0408]: the half-inhibitory concentration (IC50) at A*6801 is more than 20000 nM; on A*3301 it was more than 20000 nM; against A31 (A*3101), more than 20000 nM; against HLA-A11 (A*1101), 1620 nM.
As to GQVDYYGLYY [Peptide 1589.02], the IC50 at A*6801 was more than 20000 nM; against A*3301, more than 20000 nM; against A31 (A*3101), 5400 nM; against HLA-A11 (A*1101), 53 nM.
Regarding SSLARRHMAR [Peptide 9017.0193], the IC50 against A*6801 is 869 nM; against A*3301, 190 nM; against A31 (A*3101) it was 4.8 nM; at HLA-A11 (A*1101), 928 nM.
Consider GTRQARKNR [Peptide 9017.0071], for which the IC50 at A*6801 was more than 20000 nM; against A*3301, 5070 nM; against A31 (A*3101), 24 nM; on HLA-A11 (A*1101) it was 8350 nM.
As to LTALIKPKK [Peptide 9017.0100], the IC50 on A*6801 came out at 27 nM; against A*3301, 1110 nM; at A31 (A*3101), 2480 nM; at HLA-A11 (A*1101) it was 71 nM.
Take KGLGISYGR [Peptide 1577.30]: the IC50 is more than 20000 nM at A*6801, more than 20000 nM at A*3301, 1.4 nM at A31 (A*3101) and 415 nM against HLA-A11 (A*1101).
Regarding GILRQRRAR [Peptide 9017.0114], the IC50 against A*6801 is 1480 nM; against A*3301, 3190 nM; against A31 (A*3101), 177 nM; at HLA-A11 (A*1101), 672 nM.
In the same order, the values of KTVRLIKFLY [Peptide 9017.0197] are 12000 nM, 6650 nM, 1300 nM and 235 nM.
ESKKKVESK [Peptide 9017.0082]: the IC50 was 250 nM against A*6801, more than 20000 nM at A*3301, more than 20000 nM against A31 (A*3101) and more than 20000 nM against HLA-A11 (A*1101).
For SVFQNLQVIK [Peptide 9012.0231], the IC50 is 16 nM against A*6801, 6220 nM against A*3301, 3560 nM against A31 (A*3101) and 11 nM against HLA-A11 (A*1101).
Take KLTEDRWNK [Peptide 9017.0108]: the IC50 against A*6801 was more than 20000 nM; at A*3301, more than 20000 nM; against A31 (A*3101), 55 nM; at HLA-A11 (A*1101), 42 nM.
For YLTAPTGCLK [Peptide 1589.15], the IC50 at A*6801 is 2560 nM; against A*3301, more than 20000 nM; against A31 (A*3101), more than 20000 nM; against HLA-A11 (A*1101), 573 nM.
For the compound SFFSRTWCK [Peptide 88.0363], the IC50 at A*6801 is 66 nM; against A*3301, 4 nM; on A31 (A*3101), 12 nM; against HLA-A11 (A*1101), 16 nM.
With TVTVSAELPK [Peptide 1556.16], the IC50 was 3430 nM on HLA-A3.2 (A*0301), more than 20000 nM against A*3301 and more than 20000 nM against A31 (A*3101).
Regarding WFYVQAIVDK [Peptide 88.0140], the 50% inhibitory concentration (IC50) against A*6801 is 19500 nM; against A*3301 it was more than 20000 nM; on A31 (A*3101) it was more than 20000 nM; at HLA-A11 (A*1101), 12900 nM.
As for VLCTYSPALNK [Peptide 1556.36], the IC50 against A*6801 is 14700 nM; at A*3301, more than 20000 nM; against A31 (A*3101), 4800 nM; against HLA-A11 (A*1101) it was 150 nM.
Take EQMLIQPPK [Peptide 88.0378]: the IC50 was 732 nM against A*6801, 831 nM on A*3301, more than 20000 nM at A31 (A*3101) and 79 nM against HLA-A11 (A*1101).
For the compound VTVYDGVPVWK [Peptide 1539.09], the IC50 was 362 nM against A*6801, more than 20000 nM against A*3301, 18300 nM against A31 (A*3101) and 19 nM on HLA-A11 (A*1101).
With ATNCTNKQR [Peptide 1589.20], the IC50 stood at 1830 nM against HLA-A3.2 (A*0301), 13000 nM against A*3301 and 51 nM against A31 (A*3101).
PVRPQVPLR [Peptide 66.0063] registered an IC50 at HLA-A3.2 (A*0301) of more than 20000 nM.
On to TLTYISTSQR [Peptide 88.0211], for which the IC50 at A*6801 was determined as 56 nM; against A*3301 it was 1010 nM; against A31 (A*3101) it was 688 nM; on HLA-A11 (A*1101), 8270 nM.
Consider DFISFLSYFK [Peptide 88.0188], for which the IC50 on A*6801 came to 1.5 nM; against A*3301 it was 5.7 nM; against A31 (A*3101), 2630 nM; at HLA-A11 (A*1101), 30 nM.
With KQRFHNIRGR [Peptide 78.0083], the IC50 against HLA-A3.2 (A*0301) is 2040 nM; against A*3301, 4440 nM; on A31 (A*3101), 178 nM.
As for HLFGYSFYK [Peptide 76.0190], the results for the IC50 against HLA-A3.2 (A*0301), against A*3301 and on A31 (A*3101) were 5.4 nM, 33 nM and 27 nM, respectively.
Turning to SVCMGGMNR [Peptide 1556.60], the IC50 at HLA-A3.2 (A*0301) came out at 157 nM; against A*3301, 78 nM; against A31 (A*3101) it was 92 nM.
KISEYRHYQY [Peptide 1571.14]: the IC50 against A*6801 was 11700 nM; on A*3301 it was more than 20000 nM; on A31 (A*3101), 7220 nM; against HLA-A11 (A*1101), 392 nM.

These data come from US9340577B2, “HLA binding motifs and peptides and their uses” (priority 1992, dated 2016).
